pEC50, pIC50: −log10 of the molar value. “Also recorded” adds a separate entry of the source. Like-named read-outs stand apart in the source and are kept apart here.
How the values were obtained:
[1] = tested on: S1P and ceramide in HL60/VCR and OCI-AML2; experiment: Lipid metabolites by mass spectrometry in AML cell lines; assay type: cell-based, human; conditions: HL60/VCR and OCI-AML2, 24 hours
Method: Representative human AML cell lines (FIG. 3A; upper and lower panels) HL60/VCR and (FIG. 3B; upper and lower panels) OCI-AML2 were treated with SACLAC for 24 hours. Concentrations of lipid metabolites were determined by mass spectrometry. *, p<0.05; **, p<0.01 (Student's t-test). Upper panels represent Lipid in pmol/mg protein and lower panels represent Ceramide in pmol/mg protein.
We also characterized lipid changes in response to SACLAC treatment in order to provide further evidence of potent AC inhibition (FIGS. 3A-3B). […] Thus, the inhibitor blocks a common mechanism of ceramide detoxification in AML and is likely to provide therapeutic benefit by facilitating ceramide accumulation and apoptotic death of these proliferative cells.

[2] = tested on: Human AML cell lines (n = 30); experiment: Cell viability, average over the panel of AML cell lines; assay type: cell-based; conditions: mean over 30 human AML cell lines
Method: (§1) Representative human AML cell lines (FIG. 2A; upper and lower panels) HL60/VCR and (FIG. 2B; upper and lower panels) OCI-AML2 were treated with SACLAC for 24 and 48 hours. Viability was assessed by MTS assay at 24 and 48 hours and apoptosis was assessed by flow cytometry at 48 hours. Upper panels represent % viability and lower panels indicate % apoptosis.
(§2) Two representative human-derived AML cell lines, HL60/VCR and OCI-AML2, are shown. These studies have been expanded to a large panel of additional human AML cell lines (n=30, Table 1).

[3] = Maximum tolerated dose in vivo; conditions: preliminary results (not shown)
Method: Preliminary results (not shown) indicate a maximum tolerated dose in vivo of at least about 50 mg/kg body weight. Pharmacokinetic studies are in progress to measure any accumulation of SACLAC in the blood following treatment. Initial studies are based on doses of 20 or 40 mg/kg body weight.

[4] = tested on: primary AML patient samples; experiment: Apoptosis in primary AML patient cells; assay type: cell-based, human; conditions: 48 hours, nutrient- and growth factor-rich culture
Method: Multiple primary patient (Pt) AML cells were treated with various doses of SACLAC and assayed for apoptosis at 48 hours and colony formation over several days. […] The ordinate represents Colonies (as % of control) and the abscissa represents the concentration of SACLAC (μM). Unt=untreated; DMSO=dimethyl sulfoxide vehicle control.
Further, effects on patient samples strongly support the potential for clinical relevance of SACLAC. […] Based on the data presented here, we propose that use of SACLAC for treatment of AML is novel and clinically promising.

acid ceramidase (AC) [5] = molecular target: T1, acid ceramidase (AC) (Homo sapiens, UniProt Q13510); experiment: AC inhibition in lysates from cells overexpressing the enzyme; assay type: biochemical; parameters: expressed in transfected cells
T1 sequence (Q13510 143-395 limits assumed): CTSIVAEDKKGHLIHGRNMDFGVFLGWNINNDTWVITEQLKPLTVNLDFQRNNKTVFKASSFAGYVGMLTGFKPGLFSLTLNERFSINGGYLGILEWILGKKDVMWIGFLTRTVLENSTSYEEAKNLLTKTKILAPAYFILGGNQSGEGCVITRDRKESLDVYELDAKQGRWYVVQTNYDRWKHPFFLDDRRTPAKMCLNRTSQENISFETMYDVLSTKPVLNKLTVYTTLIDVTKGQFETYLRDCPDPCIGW
T1 sequence (Q13510 22-142 limits assumed): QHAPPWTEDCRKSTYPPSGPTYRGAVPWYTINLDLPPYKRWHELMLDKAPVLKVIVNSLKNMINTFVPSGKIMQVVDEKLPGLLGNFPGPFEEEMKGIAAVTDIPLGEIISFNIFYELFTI

[6] = tested on: AML cell lines (HL60/VCR, OCI-AML2, THP-1); experiment: Viability of AML cell lines, MTS and Cell Titer Glo (FIGS. 2, 4, Table 2); assay type: cell-based, human; conditions: for pEC50: Homo sapiens, 24 h
Method: as §1
AML cell lines and normal samples (PBMCs and/or CD34+ cells) were treated for 24 hours with SACLAC (FIG. 4A-7 cell lines) and similar AC inhibitor SABRAC (2-bromo-N-((2S,3R)-1,3-dihydroxyoctadecan-2-yl)acetamide) (FIG. 4B-four cell lines). Viability was assessed by MTS and Cell Titer Glo viability assays. EC50 values (FIG. 4C) were graphed to visualize fold-change between AML and normal cells with treatment of each compound. […] Cells tested for SABRAC were HL60/VCR and OCI-AML2 AML cell lines and two normal PBMC control samples (PBMC1 and PBMC2). The same four cell types were tested for SACLAC, as well as the AML cell line THP-1 and two normal CD34+ cell control samples (CD34+1 and CD34+2).
Next, we tested the toxicity of SACLAC and a similar published AC inhibitor SABRAC^17 to normal hematopoietic cells to ensure that AML cells are selectively targeted by the compound (FIG. 4A). […] This degree of selectivity was unexpected but extremely important for potential clinical use. […] This remarkable increase in selectivity is a surprising discovery that greatly exceeds the predicted similarity in compound behavior that one may expect with a simple substitution of one halogen for another (Cl for Br).

OCI-M2 = experiment: Cell viability, panel of AML cell lines; assay type: cell-based; conditions: Homo sapiens
Method: as §1, §2

MOLM-14 = experiment: Cell viability, panel of AML cell lines; assay type: cell-based; conditions: Homo sapiens, MOLM-14 cells
Method: as §1, §2

Kasumi-3 = experiment: Cell viability, panel of AML cell lines; assay type: cell-based; conditions: Homo sapiens, Kasumi-3 cells
Method: as §1, §2

acid ceramidase (AC) [7] = molecular target: T1, acid ceramidase (AC); experiment: AC activity in AML cell lines, fluorogenic AC substrate; assay type: cell-based; parameters: endogenous in cells; host or cells: HL60/VCR, OCI-AML2, THP-1 human AML cell lines
Method: Ceramide analog SACLAC (FIG. 1A) inhibits AC activity in representative human AML cell lines (FIG. 1B) HL60/VCR and (FIG. 1C) OCI-AML2 after 24 hours. Activity was assessed by incubation with a fluorogenic AC substrate. Published AC inhibitor LCL204 is included for comparison.
The ordinate represents AC Activity as percent of control and the abscissa represents SACLAC or LCL204 concentration.

hAML cell lines = experiment: Time course studies of apoptosis and mitochondrial membrane depolarization; assay type: cell-based, human

CCCCCCCCCCCCCCC[C@@H](O)[C@H](CO)NC(=O)CCl [SACLAC, 2-chloro-N-((2S,3R)-1,3-dihydroxyoctadecan-2-yl)acetamide]
S1P [1]: significantly reduced S1P | ceramide [1]: increased ceramide | pEC50 ([2]; 24 h, read-out: EC50 24 h, Average): 5.64 | pEC50 ([2]; 48 h, read-out: EC50 48 h, Average): 5.72 | MTD [3]: ≥ 50 mg/kg | apoptosis [4]: effectively induced apoptosis | pIC50 (acid ceramidase (AC) [5]; irreversible binding to its binding site, read-out: IC50): 7.33 | pIC50 (acid ceramidase (AC) [5]; lysates from cells overexpressing the enzyme, read-out: IC50, AC inhibition): 7.34 | viability ([6]; HL60/VCR and OCI-AML2, MTS, 24 and 48 hours, dose-dependent): reduced viability | pEC50 ([6]; mean of AML cell lines, 24 hours, read-out: EC50 AML): 5.64 | pEC50 ([6]; SACLAC: HL60/VCR, OCI-AML2, THP-1, SABRAC: HL60/VCR, OCI-AML2, order of cells not given, read-out: EC50, single AML cell lines (FIG. 4A, 4B)): 5.59 | pEC50 (OCI-M2; OCI-M2, 24 h, read-out: EC50 24 h): < 5.00 | pEC50 (OCI-M2; OCI-M2, 48 h, read-out: EC50 48 h): < 5.00 | viability at 10 µM (OCI-M2; OCI-M2 cells, 10 μM, read-out: viable cells at the highest tested dose): 60% | pEC50 (MOLM-14; 24 h, read-out: EC50 24 h): 6.30 | pEC50 (MOLM-14; 48 h, read-out: EC50 48 h): 6.30 | pEC50 (Kasumi-3; 24 h, read-out: EC50 24 h): 6.30 | pEC50 (Kasumi-3; 48 h, read-out: EC50 48 h): 6.15 | AC activity (acid ceramidase (AC) [7]; HL60/VCR and OCI-AML2, 24 hours): decreased AC activity at all tested doses; also recorded: nearly complete inhibition at nanomolar concentrations | AC activity, compared with LCL204 (acid ceramidase (AC) [7]; HL60/VCR, THP-1 and OCI-AML2 cells, 24 h): inhibited AC activity more potently than LCL204 | mitochondrial membrane potential, time course (hAML cell lines; concurrent with apoptosis induction): mitochondrial membrane depolarization | apoptosis, time course (hAML cell lines; time course studies): apoptosis induction

From US11426371B2, “Compositions and methods for treating cancer” (University of Virginia Patent Foundation, priority 2017, dated 2022)
